# Results published in US20100152188A1, “Novel Heterocyclic Compounds” (priority 2005, published 2010).
# Like-named read-outs stand apart in the source and are kept apart here.
# Legend:
# NCIH460 = test: Anti-cancer screen (MTT), NCIH460; format: cell-based; details: Homo sapiens, NCI-H460, 48 hours with compound, tested at 0.01-100 µM
# Method: (§1) Experimental drugs are screened for anti-cancer activity in three cell lines for their GI50, TGI and LC50 values (using five concentrations for each compound). The cell lines are maintained in DMEM containing 10% fetal bovine serum. 96 well micro titer plates are inoculated with cells in 100 µL for 24 hours at 37° C., 5% CO2, 95% air and 100% relative humidity. 5000 HCT 116 cells/well, 5000 NCIH 460 cells/well and 5000 U251 cells/well are plated. A separate plate with these cell lines is also inoculated to determine cell viability before the addition of the compounds (T0).
# (§2) Following 24-hour incubation, experimental drugs are added to the 96 well plates. Each plate contains one of the above cell lines and the following in triplicate: five different concentrations (0.01, 0.1, 1, 10 and 100 µM) of four different compounds, appropriate dilutions of a cytotoxic standard and control (untreated) wells. Compounds are dissolved in DMSO to make 20 mM stock solutions on the day of drug addition and frozen at −20° C. Serial dilutions of these 20 mM stock solutions are made in complete growth medium such that 100 µL of these drug solutions in medium, of final concentrations equaling 0.01, 0.1, 1, 10 and 100 µM can be added to the cells in triplicate. Standard drugs whose anti-cancer activity has been well documented and which are regularly used are doxorubicin and SAHA.
# (§3) For T0 measurement, 24 hours after seeding the cells, 10 µL of 3-(4,5-Dimethyl-2-thiazolyl)-2,5-diphenyl-2H-tetrazolium (MTT) solution per well is added and incubation carried out for 3 hours at 37° C., 5% CO2, 95% air and 100% relative humidity, protected from light. Cells incubated with compounds for 48 hours are treated similarly except with the addition of 20 µl MTT solution per well and a subsequent incubation under the same conditions. After 3 hours of MTT incubation, well contents are aspirated carefully followed by addition of 150 µL DMSO per well. Plates are agitated to ensure solution of the formazan crystals in DMSO and absorbance read at 570 nm.
# (§4) Percent growth is calculated for each compound's concentration relative to the control and zero measurement wells (T0; viability right before compound addition). If a test well's O.D. value is greater than the T0 measurement for that cell line
# (§5) %Growth=(test−zero)/(control−zero)×100
# (§6) If a test well's O.D. value is lower than the T0 measurement for that cell line, then,
# (§7) %Growth=(test−zero)/zero×100
# HCT116 = test: Anti-cancer screen (MTT), HCT116; format: cell-based; details: Homo sapiens, HCT-116, 48 hours with compound, tested at 0.01-100 µM
# Method: as §1, §2, §3, §4, §5, §6, §7
# MDAMB-231/U 251 = test: Anti-cancer screen (MTT), MDAMB-231/U 251; format: cell-based; details: for CC50: read-out: MDAMB-231/U 251 LC50
# Method: as §1, §2, §3, §4, §5, §6, §7
# [1] = tested on: NCIH460, HCT116, MDAMB-231/U 251; test: Anti-cancer screen, mean GI50 over the cell lines; format: cell-based; details: in µM
# Method: as §1, §2, §3, §4
# HDAC = HDAC inhibition; format: biochemical; details: for HDAC Inhibition 1 μM: compound at 1 μM; for HDAC Inhibition 10 μM: compound at 10 μM
# [2] = 48 hours with compound, MTT, tested at 0.01-100 µM
Compound,GI50 (NCIH460) [µM],IC (TGI) (NCIH460) [µM],LC50 (NCIH460) [µM],GI50 (HCT116) [µM],IC (TGI) (HCT116) [µM],LC50 (concentration giving 50% net cell kill relative to T0) (HCT116) [µM],CC50 (MDAMB-231/U 251; 48 h) [µM],GI50 (MDAMB-231/U 251; [2]) [µM],IC (TGI) (MDAMB-231/U 251; [2]) [µM],Mean GI50 [1],HDAC Inhibition 1 μM (HDAC),HDAC Inhibition 10 μM (HDAC),CC50 (HCT116; read-out: HCT116 LC50) [µM],CC50 (MDAMB-231/U 251; [2]) [µM]
"CONC(=O)c1ccc(CNC(=O)OCc2cccs2)cc1 [Example 43, 2-Thienylmethyl{4-[(methoxyamino)carbonyl]benzyl}carbamate]",> 100,> 100,> 100,> 100,> 100,> 100,> 100,> 100,> 100,>100,1.9,8.10,,
"O=C(Nc1ccc(C(=O)NO)o1)OCc1ccccc1 [Example 75, Benzyl{5-[(hydroxyamino)carbonyl]-2-furyl}carbamate]",100,> 100,> 100,> 100,> 100,> 100,> 100,9,85,>100,,6.61,,
"O=C(NCc1ccc(C(=O)Nc2ncc([N+](=O)[O-])s2)cc1)OCc1cccs1 [Example 69, 2-thienylmethyl(4-{[(5-nitro-1,3-thiazol-2yl)amino]carbonyl}benzyl)carbamate]",,,,,,,,,,40.33,13.14,12.38,,
"O=C(NCc1ccc(C(=O)Nc2nnc(C(F)(F)F)s2)cc1)OCc1nc2ccccc2s1 [Example 58, 1,3-Benzothiazol-2-ylmethyl[4-({[5-(trifluoromethyl)-1,3,4-thiadiazol-2-yl]amino}carbonyl)benzyl]carbamate]",2,7,> 100,20,> 100,> 100,83,0.04,0.8,7.3,0.4,−11.54,,
"O=C(Nc1nc(CC(=O)N2CCCCC2)cs1)OCc1cccnc1 [Example 12, Pyridin-3-ylmethyl[4-(2-oxo-2-piperidin-1-ylethyl)-1,3-thiazol-2-yl]carbamate]",50,100,> 100,> 100,> 100,> 100,> 100,50,> 100,50,,10.83,,
"O=C(CCCNC(=O)Cc1csc(NC(=O)OCc2nc3ccccc3s2)n1)NO [Example 91, 1,3-Benzothiazol-2-ylmethyl[4-(2-{[4-(hydroxyamino)-4-oxobutyl]amino}-2-oxoethyl)-1,3-thiazol-2-yl]carbamate]",35,> 100,> 100,51,> 100,> 100,> 100,21,89,35.7,10.73,25.05,,
"O=C(NCc1ccc(C(=O)NO)cc1)OCc1ccnc2ccccc12 [Example 37, Quinolin-4-ylmethyl{4-[(hydroxyamino)carbonyl]benzyl}carbamate]",30,58,90,6,20,65,95,4,18,13.3,67.04,85.01,,
"Nc1ccccc1NC(=O)Cc1csc(NC(=O)OCc2nc3ccccc3s2)n1 [Example 21, 1,3-Benzothiazol-2-ylmethyl(4-{2-[(2-aminophenyl)amino]-2-oxoethyl}-1,3-thiazol-2-yl)carbamate]",15,> 100,> 100,8,> 100,> 100,> 100,4,9,9,4.41,0.57,,
"COC(=O)ONC(=O)c1ccc(CNC(=O)OCc2cccs2)cc1 [Example 84, 2-Thienylmethyl[4-({[(methoxycarbonyl)oxy]amino}carbonyl)benzyl]carbamate]",81,> 100,> 100,> 100,> 100,> 100,> 100,54,> 100,>100,20.20,61.74,,
"O=C(Cc1csc(NC(=O)c2ccc(CNC(=O)OCc3cccs3)cc2)n1)NO [Example 101, 2-Thienylmethyl{4-[({4-[2-(hydroxyamino)-2-oxoethyl]-1,3-thiazol-2-yl}amino)carbonyl]benzyl}carbamate]",> 100,> 100,> 100,14,> 100,> 100,> 100,> 100,> 100,>100,8.52,45.50,,
"COC(=O)N(OCc1ccccc1)C(=O)c1ccc(CNC(=O)OCc2cccs2)cc1 [Example 86, 2-Thienylmethyl[4-({(N-benzyloxy)(N-methoxycarbonyl)amino}carbonyl)benzyl]carbamate]",,,,,,,,,,>100,5.98,−10.22,,
"N#Cc1ccc(NC(=O)Nc2cccc(NC(=O)c3ccc(CNC(=O)OCc4cccs4)cc3)c2)cc1 [Example 105, 2-Thienylmethyl[4-({[3-({[(4-cyanophenyl)amino]carbonyl}amino)phenyl]amino}carbonyl)benzyl]carbamate]",,,,,,,,,,6.73,11.02,12.74,,
"O=C(NCc1ccc(C(=O)NOCc2ccccc2)cc1)OCc1cccs1 [Example 73, 2-Thienylmethyl(4-{[(benzyloxy)amino]carbonyl}benzyl)carbamate]",,,,,,,,,,>100,6.60,12.42,,
"O=C(CCCCCNC(=O)Cc1csc(NC(=O)OCc2ccncc2)n1)NO [Example 98, Pyridin-4-ylmethyl[4-(2-{[6-(hydroxyamino)-6-oxohexyl]amino}-2-oxoethyl)-1,3-thiazol-2-yl]carbamate]",,,,,,,,,,>100,94.01,129.59,,
"COC(=O)ON(C)C(=O)c1ccc(CNC(=O)OCc2cccs2)cc1 [Example 85, 2-Thienylmethyl[4-({[(methoxycarbonyl)oxy](methyl)amino}carbonyl)benzyl]carbamate]",,,,,,,,,,10.67,3.18,7.89,,
"CC(=O)N(O)C(=O)Cc1csc(NC(=O)OCc2cc(Br)cs2)n1 [Example 79, (4-Bromo-2-thienyl)methyl(4-{2-[acetyl(hydroxy)amino]-2-oxoethyl}-1,3-thiazol-2-yl)carbamate]",30,74,> 100,30,65,,,0.4,52,20.1,,,95,100
"CONC(=O)c1ccc(CNC(=O)OCc2c(F)c(F)c(F)c(F)c2F)cc1 [Example 44, Pentafluorobenzyl(4-{[methoxyamino]carbonyl}benzyl)carbamate]",42,> 100,> 100,21,> 100,> 100,> 100,5,9,22.67,,,,
